Laboratory results taken from patent publication US11035008B2, “Biomarkers for cancer” (BERGENBIO ASA, priority 2015, dated 2021).

Columns and labels:
pAkt = pAkt in CD33-positive cells, MOLM13 systemic xenograft model, flow cytometry; assay type: in vivo, mice; conditions: both tissues (spleens and bone marrows), 50 mg/kg for 4 days; change not significant
Method: (§1) Material from an in vivo MOLM13 systemic model was also evaluated by flow cytometry. Expression of the previously evaluated biomarkers was examined in cells isolated from bone marrows and spleens of animals with systemic AML disease (MOLM13, inoculated for 7 days prior to treatment) treated with BGB324 at 50 mg/kg for 4 days. The spleens analysed were from the same study that was analysed by microarray, as mentioned above. The bone marrows were from an identical study that was done at a later time point to get more material for flow analyses.
(§2) Cells isolated from spleens and bone marrows were assessed for phosphorylation of Erk, PLCγ1 and Akt, and expression of PHGDH and SLFN11. The samples were also co-stained with CD33, and biomarker expression was only evaluated in CD33-positive cells.

pAkt(S473) = pAkt(S473) by flow cytometry in MOLM13 cells (Example 1); assay type: cell-based, human
Method: Staining of Cells for Flow Cytometry, General Protocol: • Live cells were centrifuged at 300 G for 5 minutes, washed once with PBS and centrifuged again. Cells were then fixed in 4% PFA in PBS for 10 minutes at 37° C., and resuspended in PBS. Unless processed immediately, samples were at this point stored in PBS at 4° C. (up to three weeks) or at −80° C. (for long-term storage). If intracellular epitopes were stained, cells were permebealized in 90% MeOH for 30 minutes on ice. Unless processed immediately, samples were also be stored in 90% MeOH at −20° C. for up to two months. • Further staining procedure (permebealized or non-permebealized cells): • Cells were washed 1× in PBS and blocked in blocking buffer; either PBS+0.5% BSA or PBS+1:1000 Octagam (5 mg/ml) for 15 minutes at room temperature. Thereafter, cells were incubated with primary AB at the indicated dilutions in incubation buffer (IB, PBS+0.5% BSA) for 1 hour at room temperature. Cells were then washed 3× with IB and incubated with secondary AB (conjugated to a fluorescent flurophore) at 1:1000 dilution in IB for 30 minutes at room temperature. Finally, cells were washed 3× in IB and resuspended in PBS. Cells were analyzed immediately, or stored for up to 24 hours at 4° C. before analysis. • Analysis of cells was done on a BD LSR Fortessa or a BD C6 Accuri flow cytometer, and further processing was done using FlowJo v.7.6. • All incubation steps (but not storage) were done on a spinning wheel or gentle shaker.
MOLM13 cells were treated with BGB324 at different doses, and phosphorylation of Akt at the S473 phosphorylation site was assessed using a pAkt (S473) XP antibody from Cell Signaling Technology (#4060, BGB #109). Due to previous experience using this AB for flow, the AB was not titrated, but used at the concentration recommended by the manufacturer for flow cytometry.
MOLM13 cells were cultured in starvation medium (RPMI, 0.1% FBS) over night, pre-treated with BGB324 at 3 μM for 20 minutes, and thereafter stimulated with 10% FBS for 20 minutes (+/−BGB324) to induce Akt phosphorylation. […]

SLFN11 = SLFN11 in CD33-positive cells, MOLM13 systemic xenograft model, flow cytometry; assay type: in vivo, mice; conditions: bone marrows, 50 mg/kg for 4 days
Method: as §1, §2

Structure (SMILES): Nc1nc(Nc2ccc3c(c2)CC[C@@H](N2CCCC2)CC3)nn1-c1cc2c(nn1)-c1ccccc1CCC2 [BGB324, 1-(6,7-dihydro-5H-benzo[6,7]cyclohepta[1,2-c]pyridazin-3-yl)-N3-((7-(S)-pyrrolidin-1-yl)-6,7,8,9-tetrahydro-5H-benzo[7]annulene-2-yl)-1H-1,2,4-triazole-3,5-diamine]
- pAkt (pAkt): went down
- pAkt in shAxl-expressing cells (pAkt(S473); MOLM13 shAxl (Axl knockdown), 0.1-3 μM): inhibition of pAkt was also seen
- Akt(S473) phosphorylation (pAkt(S473); MOLM13 starved over night, 3 μM, presence and absence of 10% FBS): potently inhibited
- pAkt dose-response (pAkt(S473); MOLM13 wt, shLuc, shAxl, 0.1-3 μM, starved and non-starved): potent dose-dependent reduction of pAkt
- SLFN11 expression (SLFN11): significant reduction
